Assay results published in ChEMBL document CHEMBL1156276, “Solvent free synthesis, anti-inflammatory and anticancer activity evaluation of tricyclic and tetracyclic benzimidazole derivatives” (2010).
Structures can show the parent of a compound that is named as a salt.

Assays:
Type in all cases: functional
[1] = tested on: PC-3; experiment: Anticancer activity against human PC3 cells assessed as cell growth inhibition at 10 uM after 48 hrs by SRB assay; conditions: PC-3, 48 h, read-out: GI
[2] = tested on: HOP-62; experiment: Anticancer activity against human HOP62 cells assessed as cell growth inhibition at 10 uM after 48 hrs by SRB assay; conditions: HOP-62, 48 h, read-out: GI
[3] = tested on: MCF7; experiment: Anticancer activity against human MCF7 cells assessed as cell growth inhibition at 10 uM after 48 hrs by SRB assay; conditions: MCF7, 48 h, read-out: GI
[4] = tested on: Rattus norvegicus; experiment: Antiinflammatory activity against carrageenan-induced paw edema in rat assessed as paw volume at 50 mg/kg, po administered 30 mins before carrageenan challenge measured after 1 to 3 hrs by water plethysmometer relative to control
[5] = tested on: IGROV-1; experiment: Anticancer activity against human IGROV1 cells assessed as cell growth inhibition at 10 uM after 48 hrs by SRB assay; conditions: IGROV-1, 48 h, read-out: GI
[6] = tested on: SF-295; experiment: Anticancer activity against human SF295 cells assessed as cell growth inhibition at 10 uM after 48 hrs by SRB assay; conditions: SF-295, 48 h, read-out: GI
[7] = tested on: A549; experiment: Anticancer activity against human A549 cells assessed as cell growth inhibition at 10 uM after 48 hrs by SRB assay; conditions: A549, 48 h, read-out: GI

O=C1CCc2nc3ccc(Br)cc3n21
inhibition of growth at 10 µM [1]: 40% | inhibition of growth at 10 µM [2]: 16% | inhibition of growth at 10 µM [3]: 31% | Activity [4]: 10% | inhibition of growth at 10 µM [5]: 50% | inhibition of growth at 10 µM [6]: 0% | inhibition of growth at 10 µM [7]: 12%

Cc1cc2nc3n(c2cc1C)C(=O)c1nccnc1-3
inhibition of growth at 10 µM [1]: 39% | inhibition of growth at 10 µM [2]: 0% | inhibition of growth at 10 µM [3]: 22% | Activity [4]: 15.9% | inhibition of growth at 10 µM [5]: 7% | inhibition of growth at 10 µM [6]: 13% | inhibition of growth at 10 µM [7]: 25%

N#Cc1ccc2nc3n(c2c1)C(=O)CC3
inhibition of growth at 10 µM [1]: 3% | inhibition of growth at 10 µM [2]: 0% | inhibition of growth at 10 µM [3]: 25% | Activity [4]: 9% | inhibition of growth at 10 µM [5]: 21% | inhibition of growth at 10 µM [6]: 52% | inhibition of growth at 10 µM [7]: 6%

O=C1CCC2=NC3CCCCC3N12 (configuration not stated)
inhibition of growth at 10 µM [1]: 16% | inhibition of growth at 10 µM [2]: 0% | inhibition of growth at 10 µM [3]: 13% | Activity [4]: 19.7% | inhibition of growth at 10 µM [5]: 2% | inhibition of growth at 10 µM [6]: 38% | inhibition of growth at 10 µM [7]: 2%

CO[C@@]12[C@H](COC(N)=O)C3=C(C(=O)C(C)=C(N)C3=O)N1C[C@@H]1N[C@@H]12 [MITOMYCIN]
inhibition of growth at 10 µM [1]: 53% | inhibition of growth at 10 µM [6]: 43%

Cc1cccc2nc3n(c12)C(=O)CC3
inhibition of growth at 10 µM [1]: 14% | inhibition of growth at 10 µM [2]: 0% | inhibition of growth at 10 µM [3]: 8% | Activity [4]: 29.9% | inhibition of growth at 10 µM [5]: 3% | inhibition of growth at 10 µM [6]: 38% | inhibition of growth at 10 µM [7]: 2%

O=C1c2nccnc2C2=Nc3ccccc3CN12
inhibition of growth at 10 µM [1]: 46% | inhibition of growth at 10 µM [2]: 23% | inhibition of growth at 10 µM [3]: 56% | Activity [4]: 28.6% | inhibition of growth at 10 µM [5]: 55% | inhibition of growth at 10 µM [6]: 66% | inhibition of growth at 10 µM [7]: 48%

COc1cccc2c1C(=O)c1c(O)c3c(c(O)c1C2=O)C[C@@](O)(C(=O)CO)C[C@@H]3O[C@H]1C[C@H](N)[C@H](O)[C@H](C)O1 [DOXORUBICIN HYDROCHLORIDE]
inhibition of growth at 10 µM [3]: 72% | inhibition of growth at 10 µM [6]: 69%

O=C1CCc2nc3ccc(Cl)cc3n21
inhibition of growth at 10 µM [1]: 14% | inhibition of growth at 10 µM [2]: 11% | inhibition of growth at 10 µM [3]: 52% | Activity [4]: 27.6% | inhibition of growth at 10 µM [5]: 0% | inhibition of growth at 10 µM [6]: 37% | inhibition of growth at 10 µM [7]: 3%

O=c1c2ccccc2cc2[nH]c3cccc(O)c3n12
inhibition of growth at 10 µM [1]: 13% | inhibition of growth at 10 µM [2]: 0% | inhibition of growth at 10 µM [3]: 20% | Activity [4]: 31.8% | inhibition of growth at 10 µM [5]: 15% | inhibition of growth at 10 µM [6]: 55% | inhibition of growth at 10 µM [7]: 0%

O=C1CCc2nc3cccc(O)c3n21
inhibition of growth at 10 µM [1]: 13% | inhibition of growth at 10 µM [2]: 9% | inhibition of growth at 10 µM [3]: 22% | Activity [4]: 39.2% | inhibition of growth at 10 µM [5]: 20% | inhibition of growth at 10 µM [6]: 53% | inhibition of growth at 10 µM [7]: 0%

CC(=O)O[C@H]1C(=O)[C@@]2(C)[C@H]([C@H](OC(=O)c3ccccc3)[C@]3(O)C[C@H](OC(=O)[C@H](O)[C@@H](NC(=O)c4ccccc4)c4ccccc4)C(C)=C1C3(C)C)[C@]1(OC(C)=O)CO[C@@H]1C[C@@H]2O [PACLITAXEL]
inhibition of growth at 10 µM [2]: 42% | inhibition of growth at 10 µM [5]: 43% | inhibition of growth at 10 µM [7]: 50%

Cc1cc2[nH]c3cc4ccccc4c(=O)n3c2cc1C
inhibition of growth at 10 µM [1]: 39% | inhibition of growth at 10 µM [2]: 0% | inhibition of growth at 10 µM [3]: 22% | Activity [4]: 29.6% | inhibition of growth at 10 µM [5]: 7% | inhibition of growth at 10 µM [6]: 13% | inhibition of growth at 10 µM [7]: 41%

O=C1c2nccnc2C2=NC3CCCCC3N12 (configuration not stated)
inhibition of growth at 10 µM [1]: 15% | inhibition of growth at 10 µM [2]: 6% | inhibition of growth at 10 µM [3]: 48% | Activity [4]: 25.6% | inhibition of growth at 10 µM [5]: 28% | inhibition of growth at 10 µM [6]: 37% | inhibition of growth at 10 µM [7]: 10%

O=C1c2nccnc2-c2nc3ccccc3n21
inhibition of growth at 10 µM [1]: 13% | inhibition of growth at 10 µM [2]: 10% | inhibition of growth at 10 µM [3]: 20% | Activity [4]: 10% | inhibition of growth at 10 µM [5]: 15% | inhibition of growth at 10 µM [6]: 25% | inhibition of growth at 10 µM [7]: 0%

Cc1cc2nc3n(c2cc1C)C(=O)CC3
inhibition of growth at 10 µM [1]: 7% | inhibition of growth at 10 µM [2]: 4% | inhibition of growth at 10 µM [3]: 8% | Activity [4]: 39.4% | inhibition of growth at 10 µM [5]: 26% | inhibition of growth at 10 µM [6]: 54% | inhibition of growth at 10 µM [7]: 0%

O=C1CCc2nc3ccc([N+](=O)[O-])cc3n21
inhibition of growth at 10 µM [1]: 8% | inhibition of growth at 10 µM [2]: 0% | inhibition of growth at 10 µM [3]: 12% | Activity [4]: 0% | inhibition of growth at 10 µM [5]: 0% | inhibition of growth at 10 µM [6]: 38% | inhibition of growth at 10 µM [7]: 5%

O=c1c2ccccc2cc2n1C1CCCCC1N2 (configuration not stated)
inhibition of growth at 10 µM [1]: 6% | inhibition of growth at 10 µM [2]: 12% | inhibition of growth at 10 µM [3]: 6% | Activity [4]: 34.7% | inhibition of growth at 10 µM [5]: 28% | inhibition of growth at 10 µM [6]: 0% | inhibition of growth at 10 µM [7]: 10%
